From US20240156791A1, “METHODS OF TREATING SPINAL CORD INJURY OR DAMAGE” (Spinogenix, Inc., priority 2021, published 2024)

Tested on: rat C2 hemisection (C2HS) model of spinal cord injury
Experiment: rat C2 hemisection (C2HS) model of spinal cord injury, recovery monitored by diaphragm EMG
Assay type: in vivo
Procedure: A representative compound of this disclosure, Compound 1, was used in treating spinal cord injury in rats. The rat C2 hemisection (C2HS) model of spinal cord injury was used in this experiment. The spinal cord injury was modeled in rats by hemi-section at the level of C2 followed by monitoring of lesion and recovery was conducted by one of the following methods: diaphragm EMG, transdiaphragmatic pressure, and ventilatory behaviors.
Seven rats were treated with Compound 1 (30 mg/kg) and 8 rats were treated with a vehicle (0.5% DMSO in phosphate buffered saline) for 14 days and their recovery was monitored. […] Also, the magnitude of recovery was an average 54% among recovered compound-treated rats as compared to vehicle-treated rats.
Similar experiment was carried out separately using 4 rats and it provided similar results as those described above.

[1] = separate similar experiment using 4 rats

OCCOCCOCCOCCOc1ccc(-c2nc3ccccc3s2)cc1 [Compound 1]
recovery compared with brain derived neurotrophic factor approaches (30 mg/kg for 14 days): greater than that seen for brain derived neurothrophic factor approaches | rats recovered as judged by diaphragm EMG (30 mg/kg for 14 days, seven rats, by day 14 post lesion): 86% | magnitude of recovery (average) among recovered compound-treated rats as compared to vehicle-treated rats (30 mg/kg for 14 days, diaphragm EMG): 54% | recovery from spinal cord injury as judged by diaphragm EMG (FIG. 1A) (rats treated with compound vs vehicle (0.5% DMSO in PBS)): enhancement of recovery | % recovery as compared to vehicle-treated rats [1]: greater % recovery | magnitude of recovery as compared to vehicle-treated rats [1]: greater magnitude of recovery
